Reference: patent US6329189A, “Enzyme producing tartaric acid ether compound and process for producing tartaric acid ether compounds using this enzyme” (Kikkoman Corporation, priority 1998, dated 2001)
Counter-ions that a name gives are not always drawn.

Tests used:
[1] = test system: enzyme producing tartaric acid ether compound; assay: Km value from Lineweaver-Burk's plot; assay type: biochemical, Aspergillus oryzae; details: compound used as substrate
[2] = target: T1, histidine decarboxylase (HDC) (Homo sapiens, UniProt P19113); details: from JP-A-9-110857 and JP-A-10-59956; cited from earlier work
T1 sequence (P19113 1-662): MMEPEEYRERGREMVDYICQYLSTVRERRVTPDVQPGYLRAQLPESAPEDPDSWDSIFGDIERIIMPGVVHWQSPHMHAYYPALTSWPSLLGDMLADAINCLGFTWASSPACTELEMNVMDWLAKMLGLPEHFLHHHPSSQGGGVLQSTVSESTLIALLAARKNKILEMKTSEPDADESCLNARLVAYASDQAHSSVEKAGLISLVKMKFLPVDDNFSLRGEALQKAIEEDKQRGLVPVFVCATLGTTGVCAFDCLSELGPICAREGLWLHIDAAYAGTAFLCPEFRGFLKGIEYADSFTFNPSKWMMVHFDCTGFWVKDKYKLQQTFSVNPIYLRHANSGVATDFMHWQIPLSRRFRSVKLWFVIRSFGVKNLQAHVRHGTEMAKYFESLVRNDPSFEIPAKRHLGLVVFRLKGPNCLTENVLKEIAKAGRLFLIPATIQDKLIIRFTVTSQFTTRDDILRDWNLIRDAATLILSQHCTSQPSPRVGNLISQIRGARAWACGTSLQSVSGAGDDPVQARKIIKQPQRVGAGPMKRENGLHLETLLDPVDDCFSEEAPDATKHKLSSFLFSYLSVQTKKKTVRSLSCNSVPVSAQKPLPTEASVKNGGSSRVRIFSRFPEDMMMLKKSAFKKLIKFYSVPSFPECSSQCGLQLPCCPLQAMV

[3] = Solubility in solvents of the enzyme reaction products; assay type: physicochemical; details: water, methanol, DMSO
[4] = test system: enzyme producing tartaric acid ether compound; assay: Substrate specificity of the present enzyme in the presence of (±)-trans-epoxysuccinic acid; assay type: biochemical, Aspergillus oryzae; details: for Action of the enzyme to the phenolic hydroxyl groups of the substrate (in words): in the presence of (±)-trans-epoxysuccinic acid; for Relative activity (%): substrate in the presence of (±)-trans-epoxysuccinic acid, decrement of genistein as substrate expressed as 100
Method: The activities of the present enzyme to the various substrate compounds having a phenolic hydroxyl group(s) shown in Table 1 in the presence of (±)-trans-epoxysuccinic acid were measured and shown as relative activities (%) with reference to the activity to genistein which was expressed as 100. The measurement of activity was conducted under the same conditions as used for the determination of titer described later.
Enzyme titer was determined by the following method. The amount of the enzyme that produces 1 μmol of 2-hydroxy-3-[[5-hydroxy-3-(4-hydroxyphenyl)-4-oxo-4H-1-benzopyran-7-yl]oxy]-butanedioic acid in one minute in the reaction of the following formula (6) is expressed as 1 U. [drawing 1]
Substrate solution I: 60 mM (±)-trans-epoxysuccinic acid (Tokyo Kasei Kogyo Co., Ltd.) was dissolved in 100 ml of a 50 mM sodium acetate-acetic acid buffer (pH 6.0), and the solution was adjusted to pH 6.0 with sodium hydroxide.
Substrate solution II: Prepared by dissolving 0.3 mmol of genistein (Funakoshi Co., Ltd.) in 100 ml of dimethyl sulfoxide.
50 mmol of sodium acetate and 40 mmol of manganese sulfate were dissolved in distilled water, and the solution was adjusted to pH 6.0 with acetic acid and made one litre.
(1) 0.175 ml of the buffer, 0.1 ml of the substrate solution I and 0.01 ml of an enzyme solution were pipetted into a microtube, and the mixed solution was preincubated at 37° C. for 5 minutes.
(2) The above solution was mixed with 0.025 ml of the substrate solution II and reacted at 37° C. for 15 minutes, after which 0.01 ml of concentrated hydrochloric acid was added to stop the reaction. Used as control was a solution prepared in the same way as described above except that 0.01 ml of the buffer was added in place of 0.01 ml of the enzyme solution.
2-hydroxy-3-[[5-hydroxy-3-(4-hydroxyphenyl)-4-oxo-4H-1-benzopyran-7-yl]oxy]-butanedioic acid produced from the reaction of the formula (6) was determined by HPLC under the following conditions: […]
Column: Wakosil-II5C18HG (4.6 mm×30 mm+4.6 mm×250 mm, mfd. by Wako Pure Chemical Industries, Ltd.).
Eluent: distilled water containing 0.05% of trifluoroacetic acid and 28.8% of acetonitrile.
Detecting wavelengh: 260 nm.

[5] = test system: enzyme producing tartaric acid ether compound; assay: Influence of metallic ions on the action of the present enzyme; assay type: biochemical, Aspergillus oryzae; details: for Relative activity (%): activity with no addition = 100%; for Influence on the activity of the present enzyme (in words): presence of the ion or EDTA
Method: "Relative activity (%)" in Table 2 is the value relative to the activity (expressed as 100) observed when no metallic ion was added.
The activity observed with no addition of metallic ions was expressed as 100%.

| Action of the enzyme to the phenolic hydroxyl groups of the substrate (in words) [4] | Relative activity (%) [4] [%] | SMILES | also measured |
| --- | --- | --- | --- |
| – | – | O=C(O)[C@H]1O[C@@H]1C(=O)O (relative stereo) [(±)-trans-epoxysuccinic acid] | Km [1]: 2580 µM |
| – | – | O=C(O)C(O)C(Oc1cc(O)c2c(=O)c(-c3ccc(O)cc3)coc2c1O)C(=O)O (single isomer, unassigned) [2-[[5,8-dihydroxy-3-(4-hydroxyphenyl)-4-oxo-4H-1-benzopyran-7-yl]oxy]-3-hydroxy-butanedioic acid] | Inhibitory action against histidine decarboxylase (HDC) [2]: prominent inhibitory action |
| – | – | O=C(O)C(O)C(Oc1ccc2c(=O)c(-c3ccc(O)cc3)coc2c1)C(=O)O (single isomer, unassigned) [2-hydroxy-3-[[3-(4-hydroxyphenyl)-4-oxo-4H-1-benzopyran-7-yl]oxy]-butanedioic acid] | Inhibitory action against histidine decarboxylase (HDC) [2]: prominent inhibitory action |
| – | – | O=C(O)C(O)C(Oc1cc(O)c2c(=O)c(-c3ccc(O)cc3)coc2c1)C(=O)O (single isomer, unassigned) [2-hydroxy-3-[[5-hydroxy-3-(4-hydroxyphenyl)-4-oxo-4H-1-benzopyran-7-yl]oxy]-butanedioic acid] | Inhibitory action against histidine decarboxylase (HDC) [2]: prominent inhibitory action |
| – | – | O=C(O)C(O)C(Oc1cc(O)c2c(c1)O[C@H](c1ccc(O)c(O)c1)[C@@H](O)C2=O)C(=O)O (single isomer, unassigned) [Example 5 enzyme reaction product] | Solubility in solvents [3]: soluble in water, methanol and DMSO |
| acts in a favorable way | 115 | O=C(/C=C/c1ccc(O)c(O)c1)c1c(O)cc(O)cc1O [2',4',6',3,4-pentahydroxychalcone] | – |
| acts in a favorable way | 182 | O=c1c(-c2ccc(O)cc2)coc2cc(O)c(O)cc12 [4',6,7-trihydroxyisoflavone] | – |
| acts in a favorable way | 107 | Cc1cc(=O)oc2cc(O)cc(O)c12 [5,7-dihydroxy-4-methylcoumarin] | – |
| acts in a favorable way | 135 | O=C1COc2cc(O)ccc21 [6-hydroxy-2H-benzofuran-3-one] | – |
| acts in a favorable way | 106 | O=C1c2c(O)cc(O)cc2O[C@H](c2ccc(O)c(O)c2)[C@H]1O [(+)-taxifolin] | – |
| – | – | [Ca+2] [Ca^2+] | Relative activity (%) ([5]; 20 mM metallic ion): 140%; Influence on the activity of the present enzyme (in words) [5]: enhanced |
| – | – | [Co+2] [Co^2+] | Relative activity (%) ([5]; 20 mM metallic ion): 236%; Influence on the activity of the present enzyme (in words) [5]: enhanced |
| – | – | [Cu+2] [Cu^2+] | Relative activity (%) ([5]; 20 mM metallic ion): 0%; Influence on the activity of the present enzyme (in words) [5]: greatly inhibited |
| – | – | O=C(O)CN(CCN(CC(=O)O)CC(=O)O)CC(=O)O [EDTA, ethylenediamine-N,N,N'N'-tetraacetic acid disodium salt] | Relative activity (%) ([5]; 5 mM EDTA): 12%; Influence on the activity of the present enzyme (in words) [5]: greatly inhibited |
| – | – | O=C1C(=Cc2ccc(O)c(O)c2)Oc2cc(OC(C(=O)O)C(O)C(=O)O)ccc21 (centres unmarked) [Example 2 enzyme reaction product] | Solubility in solvents [3]: soluble in water, methanol and DMSO |
| – | – | O=C(O)C(O)C(Oc1ccc(-c2oc3cc(OC(C(=O)O)C(O)C(=O)O)cc(O)c3c(=O)c2O)cc1)C(=O)O (centres unmarked) [Example 3 enzyme reaction product II] | Solubility in solvents [3]: soluble in water, methanol and DMSO |
| – | – | O=C(O)C(O)C(Oc1cc(O)c2c(=O)c(O)c(-c3ccc(O)cc3)oc2c1)C(=O)O (centres unmarked) [Example 3 enzyme reaction product I] | Solubility in solvents [3]: soluble in water, methanol and DMSO |
| – | – | O=C1CC(c2ccc(OC(C(=O)O)C(O)C(=O)O)cc2)Oc2cc(OC(C(=O)O)C(O)C(=O)O)cc(O)c21 (centres unmarked) [Example 4 enzyme reaction product II] | Solubility in solvents [3]: soluble in water, methanol and DMSO |

| Action of the enzyme to the phenolic hydroxyl groups of the substrate (in words) [4] | Relative activity (%) [4] [%] | SMILES | also measured |
| --- | --- | --- | --- |
| – | – | O=C1CC(c2ccc(O)cc2)Oc2cc(OC(C(=O)O)C(O)C(=O)O)cc(O)c21 (centres unmarked) [Example 4 enzyme reaction product I] | Solubility in solvents [3]: soluble in water, methanol and DMSO |
| – | – | O=C(O)C(O)C(Oc1cc(O)c2c(=O)cc(-c3ccc(O)cc3)oc2c1)C(=O)O (centres unmarked) [Example 6 enzyme reaction product] | Solubility in solvents [3]: soluble in water, methanol and DMSO |
| – | – | [Fe+2] [Fe^2+] | Relative activity (%) ([5]; 20 mM metallic ion): 125%; Relative activity (%) ([5]; 20 mM metallic ion, listed as Fe^3+): 33%; Influence on the activity of the present enzyme (in words) [5]: enhanced |
| – | – | [Mg+2] [Mg^2+] | Relative activity (%) ([5]; 20 mM metallic ion): 220%; Influence on the activity of the present enzyme (in words) [5]: enhanced |
| – | – | [Mn+2] [Mn^2+] | Relative activity (%) ([5]; 20 mM metallic ion): 268%; Influence on the activity of the present enzyme (in words) [5]: enhanced |
| – | – | [Ni+2] [Ni^2+] | Relative activity (%) ([5]; 20 mM metallic ion): 198%; Influence on the activity of the present enzyme (in words) [5]: enhanced |
| – | – | [Zn+2] [Zn^2+] | Relative activity (%) ([5]; 20 mM metallic ion): 416%; Influence on the activity of the present enzyme (in words) [5]: enhanced |
| acts in a favorable way | 92 | O=c1cc(-c2ccc(O)cc2)oc2cc(O)cc(O)c12 [apigenin] | – |
| acts in a favorable way | 321 | O=c1cc(-c2ccccc2)oc2cc(O)c(O)c(O)c12 [baicalein] | – |
| acts in a favorable way | 86 | COc1ccc(-c2coc3cc(O)cc(O)c3c2=O)cc1 [biochanin A] | – |
| acts in a favorable way | 58 | O=c1oc2cc(O)ccc2c2oc3cc(O)ccc3c12 [courmestrol] | – |
| acts in a favorable way | 52 | O=c1c(-c2ccc(O)cc2)coc2cc(O)ccc12 [daidzein] | – |
| acts in a favorable way | 278 | O=c1c(O)c(-c2ccc(O)cc2)oc2cc(O)cc(O)c12 [kaempferol] | – |
| acts faintly | 4 | O=c1cc(CO)occ1O [kojic acid] | – |
| acts in a favorable way | 194 | O=C1C[C@@H](c2ccc(O)cc2)Oc2cc(O)cc(O)c21 [naringenin] | – |
| acts in a favorable way | 316 | O=C1/C(=C/c2ccc(O)c(O)c2)Oc2cc(O)ccc21 [sulfuretin] | – |
| acts faintly | 4 | COc1cc(C(=O)O)ccc1O [vanillic acid] | – |

| SMILES | Action of the enzyme to the phenolic hydroxyl groups of the substrate (in words) [4] | Relative activity (%) [4] [%] | also measured |
| --- | --- | --- | --- |
| Oc1cc(O)c2c(c1)OC(c1ccc(O)c(O)c1)C(O)C2 (centres unmarked) [catechin] | – | 16 | – |
| O=c1c(-c2ccc(O)cc2)coc2cc(O)cc(O)c12 [genistein] | acts in a favorable way | 100 | Km [1]: 1040 µM |
| O=c1c(O)c(-c2ccc(O)c(O)c2)oc2cc(O)cc(O)c12 [quercetin] | – | 31 | – |
